From patent US12209079B2 (GENERAL INCORPORATED ASSOCIATION PHARMA VALLEY PROJECT …, priority 2017, dated 2025)
Counter-ions that a name gives are not always drawn.

Assays:
[1] = biological target: rhIDO (recombinant human IDO) (Homo sapiens, UniProt P14902); assay: Enzyme assay using rhIDO (rate of kynurenine production); type: biochemical; settings: 2 h; final concentration of the compound 10 μM; rate relative to reaction without compound; read-out: rhIDO-mediated kynurenine production
Method in brief: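 rhIDO preincubated with compound 10 min at 37 °C in phosphate buffer with ascorbate, methylene blue and catalase; started with 2 mM tryptophan solution (stock) and run 120 min at 37 °C. Stopped with TCA and heated to convert N-formylkynurenine; kynurenine read at 490 nm after p-dimethylbenzaldehyde, background-subtracted, as % of no-compound control.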

[2] = biological target: rhTDO (recombinant human TDO) (Homo sapiens, UniProt P48775); assay: Enzyme assay using rhTDO (rate of kynurenine production); type: biochemical; settings: 2 h; final concentration of the compound 10 μM; rate relative to reaction without compound; read-out: rhTDO-mediated kynurenine production
rhTDO (recombinant human TDO), sequence (P48775 whole entry): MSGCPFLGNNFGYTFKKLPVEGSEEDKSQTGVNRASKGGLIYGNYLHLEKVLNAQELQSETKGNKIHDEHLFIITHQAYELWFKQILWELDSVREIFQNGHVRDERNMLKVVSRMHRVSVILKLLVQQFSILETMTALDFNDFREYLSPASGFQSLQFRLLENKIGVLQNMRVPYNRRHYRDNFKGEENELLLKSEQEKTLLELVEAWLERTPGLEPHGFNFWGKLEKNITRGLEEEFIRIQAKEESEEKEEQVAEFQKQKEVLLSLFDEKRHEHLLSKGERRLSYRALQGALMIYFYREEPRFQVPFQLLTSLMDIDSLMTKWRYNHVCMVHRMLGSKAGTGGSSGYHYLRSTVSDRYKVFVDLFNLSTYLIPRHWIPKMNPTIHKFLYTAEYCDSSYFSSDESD
Method in brief: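 Kynurenine output, as percent of untreated control after background subtraction, read at 490 nm with p-dimethylbenzaldehyde following TCA quench and 15 min heating at 50 °C. Reaction: rhTDO with compound, 10 min preincubation then 120 min at 37 °C, started by 20 mM tryptophan stock, in phosphate/ascorbate/methylene blue/catalase.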

IDO in A431 cells = biological target: T1, IDO in A431 cells (Homo sapiens, UniProt P14902); assay: IDO cell-based assay, kynurenine production in IFN-γ stimulated A431 cells; settings: A-431, 24 h; final concentration of the compound 10 μM; rate relative to culture without compound
T1 construct: endogenous in cells; host or cells: A431 cells, IFN-γ stimulated
T1 sequence (P14902 whole entry): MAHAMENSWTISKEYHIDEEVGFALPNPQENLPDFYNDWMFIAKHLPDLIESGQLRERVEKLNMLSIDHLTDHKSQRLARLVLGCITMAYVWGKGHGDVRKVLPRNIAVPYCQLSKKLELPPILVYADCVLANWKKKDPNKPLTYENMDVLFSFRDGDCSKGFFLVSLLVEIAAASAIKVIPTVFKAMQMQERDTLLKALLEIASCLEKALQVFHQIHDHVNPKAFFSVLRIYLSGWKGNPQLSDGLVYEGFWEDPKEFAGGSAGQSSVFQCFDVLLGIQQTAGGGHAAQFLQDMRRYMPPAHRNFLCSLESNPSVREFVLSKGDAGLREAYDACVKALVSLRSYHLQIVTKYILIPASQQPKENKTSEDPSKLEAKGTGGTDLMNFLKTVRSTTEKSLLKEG
Method in brief: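 A431 cells were cultured 24 h, then preincubated 1 h with compound in medium containing 178 μM L-tryptophan, and stimulated with IFN-γ (diluted to 100 ng/mL before addition) for 24 h. Kynurenine was measured by p-dimethylbenzaldehyde absorbance at 460 nm, background-subtracted, and expressed as % production versus no-compound control.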

TDO in A172 cells = biological target: T2, TDO in A172 cells (Homo sapiens, UniProt P48775); assay: TDO cell-based assay, kynurenine production in A172 cells; settings: A 172; final concentration of the compound 10 μM; rate relative to culture without compound
T2 construct: endogenous in cells; host or cells: A172 cells
T2 sequence (P48775 whole entry): as the sequence (P48775 whole entry) above
Method in brief: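 A172 cells were preincubated with compound for 1 h, then given L-tryptophan (final 524 μM) for 24 h at 37 °C. Kynurenine was read at 460 nm after p-dimethylbenzaldehyde/TCA reagent, background-subtracted, and expressed as % of no-compound production.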

rhIDO (recombinant human IDO), sequence (P14902 whole entry): as the sequence (P14902 whole entry) above

Row | Compound | remaining activity at 10 µM [1] [%] | remaining activity at 10 µM [2] [%] | remaining activity at 10 µM (IDO in A431 cells) [%] | remaining activity at 10 µM (TDO in A172 cells) [%]
1 | Fc1ccc(CSC2=NCN(CCc3cccc(C(F)(F)F)c3)CN2)c(CSC2=NCN(CCc3cccc(C(F)(F)F)c3)CN2)c1 [Compound 150, 6,6′-(((4-Fluoro-1,2-phenylene)bis(methylene))bis(sulfanediyl))bis(3-(3-(trifluoromethyl)phenethyl)-1,2,3,4-tetrahydro-1,3,5-triazine)] | 23 | 11 | 15 | 13
2 | N/C(=N\c1ccc(F)c(Cl)c1)SCc1cc(Br)ccc1C(=O)NCc1ccc(Cl)cc1 [Compound 83, 5-Bromo-2-((4-chlorobenzyl)carbamoyl)benzyl (E)-N′-(3-chloro-4-fluorophenyl)carbamimidothioate hydrobromide] | 80 | 59 | 75 | 21
3 | COC(=O)c1c(CSC(=N)N)[nH]c2ccccc12 [Compound 32, Methyl 2-((carbamimidoylthio)methyl)-1H-indole-3-carboxylate hydrobromide] | 59 | 51 | 54 | 52
4 | Fc1cccc(CN2CN=C(SCc3ccccc3CSC3=NCN(Cc4cccc(F)c4)CN3)NC2)c1 [Compound 45] | 65 | 33 | 13 | 0
5 | COCCNC(=O)c1ccc(Br)cc1CSC(=N)N [Compound 115, 5-Bromo-2-((2-methoxyethyl)carbamoyl)benzyl carbamimidothioate hydrobromide] | 91 | 63 | 121 | 71
6 | N=C(N)SCc1ccccc1CC(=O)NCC1CCCCC1 [Compound 65, 2-(2-((Cyclohexylmethyl)amino)-2-oxoethyl)benzyl carbamimidothioate hydrobromide] | 89 | 76 | 104 | 94
7 | N#Cc1ccc(CNC(=O)c2cccc(Br)c2CSC(=N)N)cc1 [Compound 111, 2-Bromo-6-((4-cyanobenzyl)carbamoyl)benzyl carbamimidothioate hydrobromide] | 17 | 122 | 53 | 87
8 | c1ccc(CN2CN=C(SCc3ccccc3CSC3=NCN(Cc4ccccc4)CN3)NC2)cc1 [Compound 14, 1,2-bis(((5-benzyl-1,4,5,6-tetrahydro-1,3,5-triazin-2-yl)thio)methyl)benzene] | 52 | 31 | 7 | 4
9 | Clc1ccc(CN2CN=C(SCc3ccccc3CSC3=NCN(Cc4ccc(Cl)cc4)CN3)NC2)cc1 [Compound 41, 1,2-Bis(((5-(4-chlorobenzyl)-1,4,5,6-tetrahydro-1,3,5-triazin-2-yl)thio)methyl)benzene] | 41 | 45 | 6 | 4
